Legend:
MCF-7 = assay: MTT screening assay, MCF-7; assay type: cell-based; settings: Homo sapiens, MCF7, 72 h incubation
Text: The ability of newly synthesized indole phytoalexins to suppress cell proliferation was screened in vitro on eight cancer cell lines including human colorectal carcinoma (Caco-2 and HCT116), human cervical cancer (HeLa), human breast adenocarcinoma (MCF-7, MDA-MB-231), human alveolar adenocarcinoma (A549) and human leukemic T cell lymphoma (Jurkat), and two non-cancer cell lines (MCF-10A, Cos-7).
The cell lines used for this study were Caco-2 (human colorectal adenocarcinoma cell line, American Type Culture Collection, Manassas, VA, USA (ATCC)), HCT116 (human colorectal carcinoma cells European Collection of Authenticated Cell Cultures, Salisbury, UK (ECACC)), HeLa (human cervical tumor cells, ECACC), MCF-7 (human breast tumor cells, ECACC), MDA-MB-231 (human breast tumor cells, ATCC), A549 (human lung carcinoma cells, ATCC), BLM (human melanoma lung metastases, a gift from prof. K. Smetana, Institute of Anatomy, Charles University in Prague), Jurkat (human leukemia cell line, ECACC), Cos-7 (immortalized monkey kidney fibroblasts, ATCC) and MCF-10A (human mammary epithelial cells, ATCC). Caco-2, MCF-7, BLM, Cos-7 and A549 cells were cultured in Dulbecco’s Modified Eagle’s Medium (DMEM) with high glucose and sodium pyruvate (GE Healthcare, Piscataway, NJ, USA); HCT116 lines, HeLa, MDA-MB-231 and Jurkat were cultured in RPMI-1640 medium; and MCF10A cells were cultured in high glucose DMEM/F12 (Dulbecco’s Modified Eagle’s Medium F12). The media were enriched with 10% fetal bovine serum (FBS) and a 1% solution of a mixture of antibiotics and antimycotics 1× HyClone™ (GE Healthcare, Chicago, IL, USA). DMEM/F12 medium was supplemented with epidermal growth factor (EGF) (20 ng/mL final), hydrocortisone (0.5 μg/mL final) and insulin (10 μg/mL final) (Sigma-Aldrich Chemie, Steinheim, Germany). The cells were placed in an incubator at 37 °C with humidified air containing 5% CO2.
The MTT assay is a colorimetric method used to quantify the metabolic activity of cells. MTT (3-(4,5-di-methylthiazol-2-yl)2,5-diphenyltetrazolium bromide) (Sigma-Aldrich Chemie, Steinheim, Germany) is reduced by oxidoreductases in the cytosol of cells to light-absorbing formazan, the presence of which can be measured spectrophotometrically and determines the half-maximal inhibitory concentration (IC50). A549 cells were seeded in […] culture plates at a density of 5 × 10^3 per well. […]
We also incubated the cells with chloroquine at concentrations of 5–20 µM, which was added 1 h before the addition of the test substance, and cisplatin at concentrations of 3–10 µM. […] After 24 h, the absorbance was measured at a wavelength of 540 nm using an automated Cytation™ 3 Cell Imaging Multi-Mode Reader (Biotek, Winooski, VT, USA). […]

A549 cells = assay: Annexin V/PI staining; assay type: cell-based, human
Method: Phosphatidylserine (PS), normally localized in the inner leaflet of the cell membrane, is translocated on the outer surface during induction of apoptosis. Annexin V/PI double staining was performed to analyze the externalization of PS on the outer plasmatic membrane surface together with cell population diversification (An^−/PI^−—living cells; An^+/PI^- early apoptotic cells; An^+/PI^+—late apoptotic/necrotic cells, and An^−/PI^+—dead cells). […] The A549 lung human alveolar adenocarcinoma cells were seeded at a density of 2 × 10^5/dish. After 24 h incubation, the cells were treated with indole phytoalexin 49 at 20 µM concentration alone or after 1 h pre-treatment with chloroquine (20 µM), and the control group with DMSO (v/v 0.02%). The whole population of treated cells (adherent and floating) was harvested at three different times (24, 48 and 72 h), washed with PBS and stained with Annexin V-Alexa Fluor® 647 antibody (Thermo Scientific, Rockford, IL, USA) in binding buffer for 20 min in the dark at RT. After the wash step, samples were stained with 1 μL of propidium iodide (final concentration 25 μg/mL) for 5 min and analyzed using a BD FACSCalibur^TM Flow Cytometer (Becton Dickinson, San Jose, CA, USA). Three independent analyses were performed.

CC(C)(C)OC(=O)n1cc(CNC(=O)Nc2ccc(NC(=O)NCc3cn(C(=O)OC(C)(C)C)c4ccccc34)cc2)c2ccccc21 [Compound 49, N,N′-(1,4-phenylene)bis{N′-[1-(tert-butoxycarbonyl)indol-3-yl]methyl (urea)}]
IC50 (MCF-7): > 100 µM
total PS externalization (Annexin V/PI) (A549 cells; A549, 20 µM, 24, 48 and 72 h, vs DMSO-treated control): did not induce
number of cells in late apoptosis, combination with CQ (A549 cells; A549, 49 20 µM + CQ 20 µM, all time points, vs DMSO, CQ or 49 alone): significantly increased
